One data set addresses human RBP4 (Homo sapiens (Human), UniProt P02753). As to the kind of experiment: SPA binding assay for RBP4 (scintillation proximity, 3H-retinol displacement). The following applies: 10 nM 3H-retinol, 50 nM biotinylated RBP4. The method, then:
Scintillation Proximity RBP4 Binding Assay
Untagged human RBP4 purified from the urine of tubular proteinuria patients was purchased from Fitzgerald Industries International. It was biotinylated using the EZ-Link Sulfo-NHS-LC-Biotinylation kit from Pierce following the manufacturer's recommendations. […] Nonspecific binding was determined in the presence of 20 μM of unlabeled retinol. The reaction mix was assembled in the dark under dim red light. The plates were sealed with clear tape (TopSeal-A: 96-well microplate, PerkinElmer), wrapped in the aluminum foil, and allowed to equilibrate 6 hours at room temperature followed by overnight incubation at +4° C. Radiocounts were measured using a TopCount NXT counter (Packard Instrument Company).
The compounds listed below were tested in two in vitro assays, RBP4 binding (SPA) and retinol-dependent RBP4-TTR interaction (HTRF) (Table 1).
(Scintillation proximity formats need no separation of bound from free tracer.)

A further data set addresses PPARγ (Homo sapiens (Human), UniProt P37231). As to the kind of experiment: PPARγ agonist assay (HTRF, PPARγ-NCOR interaction). Format: biochemical. The following applies: read-out: PPAR γ assay (HTRF) for agonists of this nuclear receptor - IC50. An excerpt:
Significant safety issues are associated with the clinical use of PPARγ agonists (increased risk of death, myocardial infarction, stroke, congestive heart failure, hepatotoxicity, peripheral edema, weight gain and carcinogenicity^1-4). We wanted to characterize the compounds we identified in a pilot screen as potential PPARγ agonists. The PPARγ assay is based on agonist-sensitive interaction of the GST-tagged ligand-binding domain (LRD) of the nuclear receptor PPARγ with the biotinylated corepressor NCOR peptide (FIG. 8).
Assay reactions are performed in a final volume of 16 ul.
In well of the 384-well assay plate, mix 6 ul of PPARγ solution, 4 ul of NCOR2 solution and 4 μl of Rosi solution. Test compounds diluted from DMSO stocks to 4× assay concentration in 1×HTRF, 100 mM KF buffer may be dispensed to well instead of Rosi. Negative control wells contained DMSO solvent alone; positive control well contained […]. […] Two μl of detection mix was added per well. […] The plate was incubated for 16 hrs at 4° C.
HTRF signal was measured in the SpectraMax M5e Multimode Plate Reader (Molecular Device). Fluorescence was excited at 337 nm. […] The signal was expressed as the ratio of fluorescence intensity: Flu668/Flu620×10,000. […]
On the technique in general: In TR-FRET formats the signal depends on donor and acceptor labels being close together.

Another data set addresses CYP2D6 (Homo sapiens (Human), UniProt P10635). Description: CYP inhibition, fluorescent, CYP2D6. The data set is classed as in vitro ADME. The method, then:
(§1) The compounds listed below were tested in various metabolic stability and CYP inhibition assays.

In a further data set the target is CYP3A4 (Homo sapiens (Human), UniProt P08684). Description: CYP inhibition, fluorescent, CYP3A4. Format: in vitro ADME. As to the method: as §1

Molecules are shown by their SMILES.

Sequence of PPARγ (P37231 204-505): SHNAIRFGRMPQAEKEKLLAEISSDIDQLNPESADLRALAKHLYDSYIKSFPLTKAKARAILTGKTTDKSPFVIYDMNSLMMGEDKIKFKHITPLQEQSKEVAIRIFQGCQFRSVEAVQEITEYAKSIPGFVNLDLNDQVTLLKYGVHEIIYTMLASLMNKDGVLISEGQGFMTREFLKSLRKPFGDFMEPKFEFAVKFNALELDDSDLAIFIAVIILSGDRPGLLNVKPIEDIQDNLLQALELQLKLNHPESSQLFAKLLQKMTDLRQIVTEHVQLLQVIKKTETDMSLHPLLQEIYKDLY
Sequence of CYP2D6 (P10635 whole entry, species assumed): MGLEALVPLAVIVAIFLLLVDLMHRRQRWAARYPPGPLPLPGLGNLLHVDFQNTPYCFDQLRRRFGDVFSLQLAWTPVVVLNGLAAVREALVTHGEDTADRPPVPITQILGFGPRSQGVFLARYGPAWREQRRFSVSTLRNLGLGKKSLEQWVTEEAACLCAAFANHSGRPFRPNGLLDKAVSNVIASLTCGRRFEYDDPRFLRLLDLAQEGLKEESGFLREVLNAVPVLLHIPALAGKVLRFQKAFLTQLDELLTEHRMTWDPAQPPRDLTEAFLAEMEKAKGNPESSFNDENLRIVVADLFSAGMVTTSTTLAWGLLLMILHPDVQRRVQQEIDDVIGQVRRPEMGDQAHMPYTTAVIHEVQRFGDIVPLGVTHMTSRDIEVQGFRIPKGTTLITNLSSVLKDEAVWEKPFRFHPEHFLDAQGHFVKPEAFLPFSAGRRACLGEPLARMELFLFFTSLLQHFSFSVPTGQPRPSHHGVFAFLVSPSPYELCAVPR
Sequence of CYP3A4 (P08684 whole entry, species assumed): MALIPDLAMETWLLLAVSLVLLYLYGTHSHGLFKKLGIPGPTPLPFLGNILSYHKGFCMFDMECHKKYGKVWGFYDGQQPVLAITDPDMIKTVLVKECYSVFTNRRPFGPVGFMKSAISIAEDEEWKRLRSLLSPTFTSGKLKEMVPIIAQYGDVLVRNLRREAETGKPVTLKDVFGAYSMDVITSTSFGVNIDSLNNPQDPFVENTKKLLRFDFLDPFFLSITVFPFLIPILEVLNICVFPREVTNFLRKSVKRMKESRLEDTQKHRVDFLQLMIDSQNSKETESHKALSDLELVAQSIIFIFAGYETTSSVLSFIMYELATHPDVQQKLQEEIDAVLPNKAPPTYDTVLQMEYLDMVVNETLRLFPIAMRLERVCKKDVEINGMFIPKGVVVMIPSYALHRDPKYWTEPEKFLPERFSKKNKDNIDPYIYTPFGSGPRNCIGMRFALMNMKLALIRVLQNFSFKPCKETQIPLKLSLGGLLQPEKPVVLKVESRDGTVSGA

As usually defined, the IC50 is the concentration that inhibits the measured activity by half. Consider `O=C(c1nc2ncccn2n1)N1C[C@H]2C[C@@H](c3ccccc3C(F)(F)F)C[C@H]2C1` [Compound 7a], for which the concentration for half-maximal inhibition (IC50) on human RBP4 was 0.023 µM; on PPARγ it was more than 100 µM; against CYP2D6 it was more than 100 µM; against CYP3A4 it was more than 100 µM.

These data come from patent US12168664B2, “Triazolopyrimidines, their preparation and use” (THE TRUSTEES OF COLUMBIA UNIVERSITY IN THE CITY OF NEW YORK, priority 2018, dated 2024).
